Results: ChEMBL document CHEMBL5543072, “Discovery of a novel lead characterized by a stilbene-extended scaffold against sepsis as soluble epoxide hydrolase inhibitors” (Eur J Med Chem, 2024)
Calls of active or inactive are those of the source. The rule behind the calls is not given here.

Experiments:
[1] = molecular target: T1, Bifunctional epoxide hydrolase 2 (Mus musculus, UniProt P34914)
T1 sequence (P34914 whole entry): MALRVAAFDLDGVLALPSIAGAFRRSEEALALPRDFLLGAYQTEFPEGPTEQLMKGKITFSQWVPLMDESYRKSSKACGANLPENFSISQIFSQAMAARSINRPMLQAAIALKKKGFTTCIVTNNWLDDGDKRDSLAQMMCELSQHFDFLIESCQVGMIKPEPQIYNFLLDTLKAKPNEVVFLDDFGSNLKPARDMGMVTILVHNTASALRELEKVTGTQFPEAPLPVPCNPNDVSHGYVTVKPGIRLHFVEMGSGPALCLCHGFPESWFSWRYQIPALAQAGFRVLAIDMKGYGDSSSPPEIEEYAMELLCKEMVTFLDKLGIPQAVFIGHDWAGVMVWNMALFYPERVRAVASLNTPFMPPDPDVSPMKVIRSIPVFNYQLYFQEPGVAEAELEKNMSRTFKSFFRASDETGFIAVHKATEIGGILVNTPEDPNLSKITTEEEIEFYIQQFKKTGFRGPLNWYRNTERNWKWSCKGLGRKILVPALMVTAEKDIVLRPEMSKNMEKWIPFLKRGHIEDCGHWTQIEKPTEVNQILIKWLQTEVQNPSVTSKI

Mus musculus [2] = experiment: Protection against LPS-induced sepsis in C57BL/6J mouse model assessed as delay in death time at 0.5 to 5 mg/kg, ip measured upto 72 hrs; assay type: functional, organism-based; settings: dose 0.5-5 mg/kg
[3] = Toxicity in LPS-induced sepsis C57BL/6J mouse model assessed as effect on survival rate at 0.5 to 5 mg/kg, ip measured upto 72 hrs; assay type: organism-based; settings: in vivo, dose 0.5-5 mg/kg
[4] = Cytotoxicity in HEK293T cells assessed as cell viability at 5 uM incubated for 48 hrs by CCK8 assay relative to control; assay type: toxicity, cell-based, HEK-293T; settings: human, read-out: Activity
[5] = Cytotoxicity in HEK293T cells assessed as cell viability at 50 uM incubated for 48 hrs by CCK8 assay relative to control; assay type: toxicity, cell-based, HEK-293T; settings: human, read-out: Activity
[6] = Cytotoxicity against human HepG2 cells assessed as cell viability at 5 uM incubated for 48 hrs by CCK8 assay relative to control; assay type: toxicity, cell-based; settings: read-out: Activity
[7] = Cytotoxicity against human HepG2 cells assessed as cell viability at 50 uM incubated for 48 hrs by CCK8 assay relative to control; assay type: toxicity, cell-based; settings: read-out: Activity
[8] = molecular target: T2, Bifunctional epoxide hydrolase 2 (Homo sapiens, UniProt P34913)
T2 sequence (P34913 whole entry): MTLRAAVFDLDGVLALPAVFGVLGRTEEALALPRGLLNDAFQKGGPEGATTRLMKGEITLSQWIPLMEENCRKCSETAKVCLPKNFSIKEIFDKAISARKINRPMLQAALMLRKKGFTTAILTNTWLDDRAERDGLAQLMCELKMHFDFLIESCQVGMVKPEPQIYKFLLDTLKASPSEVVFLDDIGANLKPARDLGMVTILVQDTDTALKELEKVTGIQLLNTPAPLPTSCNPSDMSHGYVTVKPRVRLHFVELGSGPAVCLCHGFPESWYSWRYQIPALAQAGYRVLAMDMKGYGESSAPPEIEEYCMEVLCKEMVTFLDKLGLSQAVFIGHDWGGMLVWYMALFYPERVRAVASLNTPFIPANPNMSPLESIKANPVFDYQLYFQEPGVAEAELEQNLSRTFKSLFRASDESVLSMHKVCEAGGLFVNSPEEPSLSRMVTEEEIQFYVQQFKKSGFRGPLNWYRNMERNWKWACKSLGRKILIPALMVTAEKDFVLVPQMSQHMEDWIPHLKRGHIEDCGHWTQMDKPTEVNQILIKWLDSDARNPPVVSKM

Mus musculus [9] = experiment: Protection against LPS-induced sepsis in C57BL/6J mouse model assessed as survival rate at 5 mg/kg, iv measured after 24 hrs relative to control; assay type: functional
Mus musculus [10] = experiment: Protection against LPS-induced sepsis in C57BL/6J mouse model assessed as survival rate at 5 mg/kg, iv measured after 48 hrs relative to control; assay type: functional
Mus musculus [11] = experiment: Protection against LPS-induced sepsis in C57BL/6J mouse model assessed as survival rate at 5 mg/kg, iv measured after 72 hrs relative to control; assay type: functional
Mus musculus [12] = experiment: Protection against LPS-induced sepsis in C57BL/6J mouse model assessed as […] at 5 mg/kg, iv measured after 32 hrs relative to control; assay type: functional

| Structure (SMILES) | IC50 [1] | further results |
| --- | --- | --- |
| O=C(Cn1c2ccccc2c2ccccc21)Nc1cccc(/C=C/c2ccc(NC(=O)NCC3CCOCC3)cc2)c1 | 3.31 nM |  |
| COc1cc(/C=C/c2cccc(NC(=O)NCC(C)C)c2)cc(OC)c1 | 44.5 nM |  |
| CC(C)CNC(=O)Nc1ccc(/C=C/c2ccc3c(c2)OCO3)c(F)c1 | 6.72 nM |  |
| O=C(Cc1ccccn1)Nc1cccc(NC(=O)c2ccc(NC(=O)NCC3CCOCC3)cc2)c1 | 67.4 nM |  |
| COc1cc(/C=C/c2ccc(NC(=O)NCC3CCOCC3)cc2)cc(OC)c1 | 2.53 nM |  |
| O=C(NCC1CCOCC1)Nc1ccc(/C=C/c2ccc3c(c2)OCO3)cc1 | 1.63 nM | Activity (Mus musculus [2]): Active; Activity [3]: Non-Toxic; viability at 48 h, 5 µM [4]: 98.2%; viability at 48 h, 50 µM [5]: 84.3%; viability at 48 h, 5 µM [6]: 82.8%; viability at 48 h, 50 µM [7]: 69%; IC50 [8]: 4.78 nM |
| COc1cc(/C=C/c2ccc(NC(=O)N(C)C)cc2)cc(OC)c1 | 5200 nM |  |
| CC[C@H](C)C(=O)N1CCC(NC(=O)Nc2ccc(OC(F)(F)F)c(F)c2)CC1 |  | survival at 5 mg/kg (Mus musculus [9]): 30%; survival at 5 mg/kg (Mus musculus [10]): 0%; survival at 5 mg/kg (Mus musculus [11]): 0% |
| CN1CCC(NC(=O)Nc2ccc(/C=C/c3ccc4c(c3)OCO4)cc2)CC1 | 2600 nM |  |
| O=C(Cc1cccnc1)Nc1cccc(/C=C/c2ccc(NC(=O)NCC3CCOCC3)cc2)c1 | 2.03 nM | survival at 5 mg/kg (Mus musculus [9]): 70%; survival at 5 mg/kg (Mus musculus [10]): 20%; survival at 5 mg/kg (Mus musculus [11]): 0%; Activity (Mus musculus [12]): 0% |
| C[C@@H]1C[C@H]2[C@@H]3CCC4=CC(=O)C=C[C@]4(C)[C@@]3(F)[C@@H](O)C[C@]2(C)[C@@]1(O)C(=O)CO [DEXAMETHASONE] |  | survival at 5 mg/kg (Mus musculus [9]): 100%; survival at 5 mg/kg (Mus musculus [10]): 100%; survival at 5 mg/kg (Mus musculus [11]): 100% |
| O=C(Cc1ccc2ncccc2c1)Nc1cccc(/C=C/c2ccc(NC(=O)NCC3CCOCC3)cc2)c1 | 1.4 nM | survival at 5 mg/kg (Mus musculus [9]): 80%; survival at 5 mg/kg (Mus musculus [10]): 0%; survival at 5 mg/kg (Mus musculus [11]): 0%; Activity (Mus musculus [12]): 0% |
| Cc1cc(/C=C/c2ccc3c(c2)OCO3)ccc1NC(=O)NCC(C)C | 3.21 nM |  |
| COc1cc(/C=C/c2cccc(NC(=O)NCC3CCOCC3)c2)cc(OC)c1 | 91.3 nM |  |
| O=C(NCC1CCOCC1)Nc1ccc(/C=C/c2cccc(C(=O)NCc3ccccn3)c2)cc1 | 5.78 nM |  |
| CC(C)CNC(=O)Nc1ccc(/C=C/c2ccc3c(c2)OCO3)cc1 | 2.68 nM |  |

Further molecules by falling IC50 [1], results first:

| IC50 [1] | Structure (SMILES) | further results |
| --- | --- | --- |
| 2740 nM | CN1CCN(C(=O)Nc2ccc(/C=C/c3ccc4c(c3)OCO4)cc2)CC1 |  |
| 908 nM | COc1cc(/C=C/c2ccc(NC(=O)NCC3CCN(C)CC3)cc2)cc(OC)c1 |  |
| 200 nM | CCC(=O)N1CCN(C(=O)Nc2ccc(/C=C/c3ccc4c(c3)OCO4)cc2)CC1 |  |
| 23.3 nM | CC(C)CCNC(=O)Nc1cccc(/C=C/c2ccc3c(c2)OCO3)c1 |  |
| 14.3 nM | COc1cc(/C=C/c2ccc(CNC(=O)NCC(C)C)cc2)cc(OC)c1 |  |
| 8.42 nM | O=C(NCC1CCOCC1)Nc1ccc(/C=C/c2cccc(NC(=O)c3ccccn3)c2)cc1 |  |
| 8.02 nM | CCC(=O)N1CCC(NC(=O)Nc2ccc(/C=C/c3ccc4c(c3)OCO4)cc2)CC1 |  |
| 4.76 nM | COc1ccc(/C=C/c2ccc(NC(=O)NCC(C)C)cc2)cc1O |  |
| 4.59 nM | CC(C)CNC(=O)Nc1ccc(/C=C/c2ccc3c(c2)OCO3)c(Cl)c1 |  |
| 3.45 nM | O=C(Cc1ccccn1)Nc1ccc(/C=C/c2ccc(NC(=O)NCC3CCOCC3)cc2)cc1 |  |
| 3.23 nM | Cc1cc(NC(=O)NCC(C)C)ccc1/C=C/c1ccc2c(c1)OCO2 |  |
| 2.74 nM | O=C(NCC1CCOCC1)Nc1cccc(/C=C/c2ccc3c(c2)OCO3)c1 |  |
| 2.03 nM | CC(C)CNC(=O)Nc1cccc(/C=C/c2ccc3c(c2)OCO3)c1 |  |
| 1.92 nM | COc1cc(/C=C/c2ccc(NC(=O)NCC(C)C)cc2)cc(OC)c1 |  |
| 1.42 nM | O=C(Cc1ccncc1)Nc1cccc(/C=C/c2ccc(NC(=O)NCC3CCOCC3)cc2)c1 |  |
| 1.26 nM | O=C(Cn1ccc2ccccc21)Nc1cccc(/C=C/c2ccc(NC(=O)NCC3CCOCC3)cc2)c1 |  |
| 1.24 nM | CC(C)CNC(=O)Nc1ccc(/C=C/c2ccc3c(c2)OCO3)cc1F |  |
| 1.22 nM | CC(C)CCNC(=O)Nc1ccc(/C=C/c2ccc3c(c2)OCO3)cc1 |  |
